Tested on: r(G4C2)8
Experiment: In vitro RNase L-mediated cleavage of 32P-labeled r(G4C2)8, gel analysis
Assay type: biochemical
Settings: 10 μM and 20 μM compound, constant RNase L
Procedure: The 5′ end of r(G4C2)8 (SEQ ID NO: 1) (a model of r(G4C2)^exp) was radiolabeled with ^32P and purified on a denaturing polyacrylamide gel (15%), as previously described^31,32. After purification, labeled RNA (25 nM) was folded in 1×RNase L buffer (25 mM Tris-HCl, pH 7.4, and 100 mM NaCl) for 5 minutes at 95° C. The folded RNA was cooled to room temperature and 2-mercaptoethanol (7 mM final concentration), ATP (50 μM final concentration), and MgCl2 (10 mM final concentration) were added to the solution. Dilutions of compound in the folded RNA solution were then made and incubated for 15 minutes at room temperature. After the incubation, RNase L was added to a final concentration 50 nM. Samples were incubated at 37° C. overnight. Cleavage fragments were then separated on a denaturing 15% polyacrylamide gel, imaged by autoradiography (Typhoon FLA 9500), and quantified using the QuantityOne software (BioRad). All experiments were performed in duplicate.

CCOC(=O)C1=C(Nc2ccccc2)S/C(=C\c2ccc(OCCOCCOCCOCCNC(=O)CCCOc3ccc4c(c3)c3cc5c(C(=O)N[C@H](C)CN(C)C)nccc5c(C)c3n4C)c(O)c2)C1=O [ALS Compound Formula I]
cleavage of r(G4C2)8: significant cleavage

Source: US20250032624A1, “SMALL MOLECULE DEGRADATION METHODS FOR TREATING ALS/FTD” (University of Florida Research Foundation, Incorporated, priority 2021, published 2025)
